Holding throughout (type): in vivo
The test system of experiment [1] is Adoxophyes orana fasciata. Description: Test Example 7: spray test on apple tree against Adoxophyes orana fasciata larvae. To be noted: in Malus domestica, 168 h, read-out: Death rate. As to the method:
The formulations of Compounds of Present Invention 1-2 and 1-3 as obtained in Formulation Example 5 were diluted with water, so as to have a concentration of the active ingredient of 500 ppm, to prepare a test spray solution.
On the other hand, an apple tree was planted in a plastic cup, and grown until the seventh-eighth true leaf was spread. To the apple tree was sprayed, at a rate of 20 mL/cup, the test drug solution. After the drug solution was dried, 60 first-instar larvae of Adoxophyes orana fasciata were released, and covered with a plastic cup the bottom of which was cut off and on which a filter paper was put, with the plastic cup cover placed upside-down. After 7 days, the number of dead insects was counted, and the death rate was calculated according to the following equation. Death rate (%) = (Number of deads insects/Number of tested insects) × 100 [formula]

The subject of the next experiment is Plutella xylostella. Description: Test Example 6: spray test on cabbage against Plutella xylostella larvae. Conditions: 120 h, sprayed 20 mL/cup on cabbage, second instar larvae, 5 days at 25°C, read-out: Death rate. As to the method: On the other hand, on cabbage at the third leaf stage planted in a polyethylene cup was sprayed, at a rate 20 mL/cup, the test drug solution. After the drug solution was dried, the foliage part was cut off, and then placed in a 50 mL volume cup. Five second instar larvae of Plutella xylostella were released into the cup, and the cup was sealed with a lid. After the cup was kept at 25°C for 5 days, the number of dead insects was counted. The death rate was calculated according to the following equation. Death rate (%) = (Number of deads insects/Number of tested insects) × 100 [formula]

The subject of the next experiment is Culex pipiens pallens. As to the kind of experiment: Test Example 10: larvicidal test in water against Culex pipiens pallens. To be noted: 24 h, active ingredient concentration 3.5 ppm in ion-exchanged water, last-instar larvae, one day later, read-out: Death rate. As to the method:
The formulations of Compounds of Present Invention 1-2, 1-3 and 1-8 as obtained in Formulation Example 5 were diluted with water, so as to have a concentration of the active ingredient of 500 ppm, to prepare a test drug solution.
0.7 ml of the test drug solution was added to 100 ml of ion-exchanged water (active ingredient concentration: 3.5 ppm). 20 last-instar larvae of Culex pipiens pallens were released into the solution. One day later, the life and death of the Culex pipiens pallens was examined, and the number of dead insects was counted to calculate the death rate. Death rate (%) = (Number of deads insects/Number of tested insects) × 100 [formula]

In a further experiment the test system is Musca domestica. Description: Test Example 8: filter paper and sucrose bait test against Musca domestica. Conditions: 24 h, read-out: Death rate. Here is the method: The formulation of Compound of Present Invention 1-2 as obtained in Formulation Example 5 was diluted with water, so as to have a concentration of the active ingredient of 500 ppm, to prepare a test drug solution.
A filter paper having a diameter of 5.5 cm was spread on the bottom of a polyethylene cup having the same diameter and 0.7 ml of the test drug solution was added dropwise onto the filter paper, and 30 mg of sucrose was uniformly placed as bait. Into the polyethylene cup, 10 female imagoes of Musca domestica were released, and the cup was sealed with a lid. After 24 hours, the life and death of Musca domestica was examined, the number of dead insects was counted, and the death rate was calculated according to the following equation. Death rate (%) = (Number of deads insects/Number of tested insects) × 100 [formula]

The subject of experiment [2] is Haemaphysalis longicornis. As to the kind of experiment: Test Example 11: coated screw tube contact test against Haemaphysalis longicornis ticks. To be noted: 48 h, 2 mg in 0.2 mL acetone coated on inner wall of screw tube, unfed nymphal ticks, after 2 days, read-out: Death rate. Here is the method: Compound of Present Invention 1-24 (2 mg) was weighed in a screw tube (Maruemu No. 5; 27 x 55 mm), and 0.2 mL of acetone was added thereto, and the screw tube was sealed with a cap to dissolve the compound. The screw tube was rotated and inverted to uniformly coat the drug solution onto the whole inner wall of the tube. After removing the cap, the solution was air-dried for about 2 hours, then unfed nymphal ticks, Haemaphysalis longicornis (5 ticks/group) were released, and the tube was sealed with the cap. After 2 days, the number of dead insects was counted, and the death rate was calculated according to the following equation. Death rate (%) = 100 × (Number of deads insects/Number of tested insects) [formula]

Turning to `CCS(=O)(=O)c1cc(C(=O)OC)ccc1-c1nc2cc(C(F)(F)F)cnc2n1C` [1-2], the results for the mortality at 500 ppm (in experiment [1]; with Plutella xylostella; in the experiment on Musca domestica) were no less than 90%, no less than 80% and 100%, respectively. Moreover, the mortality at 3.5 ppm with Culex pipiens pallens is no less than 95%.

Consider `CCOC(=O)c1ccc(-c2nc3cc(C(F)(F)F)cnc3n2C)c(S(=O)(=O)CC)c1` [1-3], for which the mortality at 500 ppm in experiment [1] was no less than 90%; in the experiment with Plutella xylostella, no less than 80%. The mortality at 3.5 ppm in the experiment with Culex pipiens pallens was no less than 95%.

With `CCOC(=O)c1ccc(-c2nc3cc(C(F)(F)F)ccc3n2C)c(S(=O)(=O)CC)c1` [1-8], the mortality at 3.5 ppm with Culex pipiens pallens is no less than 95%.

For the molecule `CCOC(=O)c1ccc(-c2nc3cc(C(F)(F)F)ccc3s2)c(S(=O)(=O)CC)c1` [1-24], the mortality at 2 mg/tube in experiment [2] came to 100%.

(Values after EP2963022A1, “FUSED HETEROCYCLIC COMPOUND AND PEST CONTROL APPLICATIONS THEREOF” (priority 2013, dated 2014).)
